Measurements: patent EP0908457B1, “3-(1,2-benzisothiazol- and isoxazol-5-Y1)-2,4(1H,3H)-pyrimidinedione or thione and 3-(1,2-benzisothiazol- and isoxazol-5-y1)-4(3H)-pyrimidinone or thione herbicidal agents” (BASF AKTIENGESELLSCHAFT, priority 1997, dated 1999)

How the values were obtained:
[1] = test system: Cyperus iria; assay: Preemergence weed control under flooded paddy conditions, CYPIR (Rice Flatsedge); assay type: in vivo; conditions: flooded paddy; for CYPIR herbicidal effect rating / herbicidal effect rating, CYPIR: rated three to four weeks after treatment; for CYPIR: herbicidal effect rating 0-9, three to four weeks after treatment; on herbicidal effect rating, CYPIR: meaning of each grade not given here
[2] = test system: Echinochloa oryzoides (Ard.) Fritsch.; assay: Preemergence weed control under flooded paddy conditions, ECHORC (Watergrass (Calif.)); assay type: in vivo; conditions: flooded paddy; for ECHORC herbicidal effect rating / herbicidal effect rating, ECHORC: rated three to four weeks after treatment; for ECHORC: herbicidal effect rating 0-9, three to four weeks after treatment; on herbicidal effect rating, ECHORC: meaning of each grade not given here
[3] = test system: Oryza sativa, (L.) Tebonnet; assay: Rice tolerance to post-transplant applications under flooded paddy conditions (Example 187), ORYSAT (Rice, Tebonnet); conditions: for ORYSAT herbicidal effect rating / herbicidal effect rating, ORYSAT (rice tolerance): rated three to four weeks after treatment; for ORYSAT: herbicidal effect rating 0-9, three to four weeks after treatment
[4] = test system: Monochoria vaginalis, Presl.; assay: Preemergence weed control under flooded paddy conditions, MOOVA (Monochoria); assay type: in vivo; conditions: flooded paddy; for MOOVA herbicidal effect rating / herbicidal effect rating, MOOVA: rated three to four weeks after treatment; for MOOVA: herbicidal effect rating 0-9, three to four weeks after treatment; on herbicidal effect rating, MOOVA: meaning of each grade not given here
[5] = test system: Sagittaria pygmaea, L.; assay: Preemergence weed control under flooded paddy conditions, SAGPY (Arrowhead (Pygmaea)); assay type: in vivo; conditions: flooded paddy; for SAGPY herbicidal effect rating / herbicidal effect rating, SAGPY: rated three to four weeks after treatment; for SAGPY: herbicidal effect rating 0-9, three to four weeks after treatment; on herbicidal effect rating, SAGPY: meaning of each grade not given here
[6] = test system: Cyperus serotinus, Rottb.; assay: Preemergence weed control under flooded paddy conditions, CYPSE (Flatsedge); assay type: in vivo; conditions: for CYPSE herbicidal effect rating / herbicidal effect rating, CYPSE: rated three to four weeks after treatment; for CYPSE: herbicidal effect rating 0-9, three to four weeks after treatment; on herbicidal effect rating, CYPSE: meaning of each grade not given here
[7] = Rate 0.0620 kg/ha, preemergence
[8] = Rate 0.1250 kg/ha, preemergence
[9] = Rate 0.2500 kg/ha, preemergence
[10] = 0.0320 kg/ha, preemergence weeds
[11] = 0.0620 kg/ha, preemergence weeds
[12] = 0.1250 kg/ha, preemergence weeds
[13] = 0.2500 kg/ha, preemergence weeds
[14] = 0.0313 kg/ha, preemergence weeds
[15] = 0.0625 kg/ha, preemergence weeds

COP(=O)(Cc1nsc2ccc(-n3c(=O)cc(C(F)(F)F)n(C)c3=O)cc12)OC [Example 262, 1,2-Benzisothiazole-3-methanephosphonic acid, 5-[3,6-dihydro-3-methyl-2,6-dioxo-4-(trifluoromethyl)-1(2H)-pyrimidinyl]-, dimethyl ester]
CYPIR herbicidal effect rating [1, 7]: 0.0 | CYPIR herbicidal effect rating [1, 8]: 6.0 | CYPIR herbicidal effect rating [1, 9]: 9.0 | ECHORC herbicidal effect rating [2, 7]: 0.0 | ECHORC herbicidal effect rating [2, 8]: 0.0 | ECHORC herbicidal effect rating [2, 9]: 3.0 | ORYSAT herbicidal effect rating ([3]; Rate 0.0620 kg/ha): 0.0 | ORYSAT herbicidal effect rating ([3]; Rate 0.1250 kg/ha): 0.0 | ORYSAT herbicidal effect rating ([3]; Rate 0.2500 kg/ha): 3.0 | MOOVA herbicidal effect rating [4, 7]: 0.0 | MOOVA herbicidal effect rating [4, 8]: 9.0 | MOOVA herbicidal effect rating [4, 9]: 9.0 | SAGPY herbicidal effect rating [5, 7]: 0.0 | SAGPY herbicidal effect rating [5, 8]: 0.0 | SAGPY herbicidal effect rating [5, 9]: 0.0 | CYPSE herbicidal effect rating [6, 7]: 0.0 | CYPSE herbicidal effect rating [6, 8]: 0.0 | CYPSE herbicidal effect rating [6, 9]: 0.0

Cc1ccc(OCC(=O)NS(C)(=O)=O)c(-c2noc3cc(F)c(-n4c(=O)cc(C(F)(F)F)n(C)c4=O)cc23)c1 [Example 428, Acetamide, 2-{{2-{5-[3,6-dihydro-3-methyl-2,6-dioxo-4-(trifluoromethyl)-1(2H)-pyrimidinyl]-6-fluoro-1,2-benzisoxazol-3-yl}-p-tolyl}oxy}-N-(methylsulfonyl)-]
CYPIR [1, 10]: 0.0 | CYPIR [1, 11]: 2.0 | CYPIR [1, 12]: 4.0 | CYPIR [1, 13]: 7.0 | ECHORC [2, 10]: 2.0 | ECHORC [2, 11]: 3.0 | ECHORC [2, 12]: 6.0 | ECHORC [2, 13]: 9.0 | ORYSAT ([3]; 0.0320 kg/ha): 0.0 | ORYSAT ([3]; 0.0620 kg/ha): 2.0 | ORYSAT ([3]; 0.1250 kg/ha): 6.0 | ORYSAT ([3]; 0.2500 kg/ha): 6.0 | MOOVA [4, 10]: 9.0 | MOOVA [4, 11]: 9.0 | MOOVA [4, 12]: 9.0 | MOOVA [4, 13]: 9.0 | SAGPY [5, 10]: 0.0 | SAGPY [5, 11]: 0.0 | SAGPY [5, 12]: 2.0 | SAGPY [5, 13]: 6.0 | CYPSE [6, 10]: 0.0 | CYPSE [6, 11]: 0.0

Cn1c(C(F)(F)F)cc(=O)n(-c2ccc3snc(NS(C)(=O)=O)c3c2)c1=O [Example 117, N-{5-[3,6-Dihydro-3-methyl-2,6-dioxo-4-(trifluoromethyl)-1(2H)-pyrimidinyl]-1,2-benzisothiazol-3-yl}methanesulfonamide]
herbicidal effect rating, CYPIR [1, 14]: 0.0 | herbicidal effect rating, CYPIR [1, 15]: 0.0 | herbicidal effect rating, CYPIR [1, 12]: 0.0 | herbicidal effect rating, CYPIR [1, 13]: 0.0 | herbicidal effect rating, ECHORC [2, 14]: 0.0 | herbicidal effect rating, ECHORC [2, 15]: 0.0 | herbicidal effect rating, ECHORC [2, 12]: 0.0 | herbicidal effect rating, ECHORC [2, 13]: 0.0 | herbicidal effect rating, ORYSAT (rice tolerance) ([3]; 0.0313 kg/ha): 0.0 | herbicidal effect rating, ORYSAT (rice tolerance) ([3]; 0.0625 kg/ha): 0.0 | herbicidal effect rating, ORYSAT (rice tolerance) ([3]; 0.1250 kg/ha): 0.0 | herbicidal effect rating, ORYSAT (rice tolerance) ([3]; 0.2500 kg/ha): 0.0 | herbicidal effect rating, MOOVA [4, 14]: 0.0 | herbicidal effect rating, MOOVA [4, 15]: 0.0 | herbicidal effect rating, MOOVA [4, 12]: 2.0 | herbicidal effect rating, MOOVA [4, 13]: 4.0 | herbicidal effect rating, SAGPY [5, 14]: 0.0 | herbicidal effect rating, SAGPY [5, 15]: 0.0 | herbicidal effect rating, SAGPY [5, 12]: 0.0 | herbicidal effect rating, SAGPY [5, 13]: 0.0 | herbicidal effect rating, CYPSE [6, 14]: 0.0 | herbicidal effect rating, CYPSE [6, 15]: 0.0 | herbicidal effect rating, CYPSE [6, 12]: 0.0 | herbicidal effect rating, CYPSE [6, 13]: 0.0

COC(=O)C(C)Oc1ccc(C)cc1-c1nsc2ccc(-n3c(=S)cc(C(F)(F)F)n(C)c3=O)cc12 (stereo not shown) [Example 33, Methyl 2-{{2-{5-[3,6-dihydro-3-methyl-2-oxo-6-thioxo-4-(trifluoromethyl)-1(2H)-pyrimidinyl]-1,2-benzisothiazol-3-yl}-p-tolyl}oxy}propionate]
herbicidal effect rating, CYPIR ([1]; 0.0313 kg/ha, preemergence): 0.0 | herbicidal effect rating, CYPIR ([1]; 0.0625 kg/ha, preemergence): 0.0 | herbicidal effect rating, CYPIR ([1]; 0.1250 kg/ha, preemergence): 2.0 | herbicidal effect rating, CYPIR ([1]; 0.2500 kg/ha, preemergence): 4.0 | herbicidal effect rating, ECHORC ([2]; 0.0313 kg/ha, preemergence): 7.5 | herbicidal effect rating, ECHORC ([2]; 0.0625 kg/ha, preemergence): 8.5 | herbicidal effect rating, ECHORC ([2]; 0.1250 kg/ha, preemergence): 9.0 | herbicidal effect rating, ECHORC ([2]; 0.2500 kg/ha, preemergence): 9.0 | herbicidal effect rating, ORYSAT (rice tolerance) ([3]; 0.0313 kg/ha): 2.0 | herbicidal effect rating, ORYSAT (rice tolerance) ([3]; 0.0625 kg/ha): 3.0 | herbicidal effect rating, ORYSAT (rice tolerance) ([3]; 0.1250 kg/ha): 3.0 | herbicidal effect rating, ORYSAT (rice tolerance) ([3]; 0.2500 kg/ha): 3.5 | herbicidal effect rating, MOOVA ([4]; 0.0313 kg/ha, preemergence): 9.0 | herbicidal effect rating, MOOVA ([4]; 0.0625 kg/ha, preemergence): 9.0 | herbicidal effect rating, MOOVA ([4]; 0.1250 kg/ha, preemergence): 9.0 | herbicidal effect rating, MOOVA ([4]; 0.2500 kg/ha, preemergence): 9.0 | herbicidal effect rating, SAGPY ([5]; 0.0313 kg/ha, preemergence): 0.0 | herbicidal effect rating, SAGPY ([5]; 0.0625 kg/ha, preemergence): 0.0 | herbicidal effect rating, SAGPY ([5]; 0.1250 kg/ha, preemergence): 0.0 | herbicidal effect rating, SAGPY ([5]; 0.2500 kg/ha, preemergence): 0.0 | herbicidal effect rating, CYPSE ([6]; 0.0313 kg/ha, preemergence): 0.0 | herbicidal effect rating, CYPSE ([6]; 0.0625 kg/ha, preemergence): 0.0 | herbicidal effect rating, CYPSE ([6]; 0.1250 kg/ha, preemergence): 0.0 | herbicidal effect rating, CYPSE ([6]; 0.2500 kg/ha, preemergence): 0.0

Cn1c(C(F)(F)F)cc(=O)n(-c2ccc3snc(/C=N/Nc4ccccc4)c3c2)c1=O [Example 408, 1,2-Benzisothiazole-3-carboxaldehyde, 5-[3,6-dihydro-3-methyl-2,6-dioxo-4-(trifluoromethyl)-1(2H)-pyrimidinyl]-, 3-(phenylhydrazone), (E)-]
CYPIR [1, 10]: 6.0 | CYPIR [1, 11]: 9.0 | CYPIR [1, 12]: 9.0 | CYPIR [1, 13]: 9.0 | ECHORC [2, 10]: 2.0 | ECHORC [2, 11]: 3.0 | ECHORC [2, 12]: 6.0 | ECHORC [2, 13]: 7.0 | ORYSAT ([3]; 0.0320 kg/ha): 0.0 | ORYSAT ([3]; 0.0620 kg/ha): 2.0 | ORYSAT ([3]; 0.1250 kg/ha): 2.0 | ORYSAT ([3]; 0.2500 kg/ha): 3.0 | MOOVA [4, 10]: 7.0 | MOOVA [4, 11]: 9.0 | MOOVA [4, 12]: 9.0 | MOOVA [4, 13]: 9.0 | SAGPY [5, 10]: 0.0 | SAGPY [5, 11]: 0.0 | SAGPY [5, 12]: 4.0 | SAGPY [5, 13]: 6.0 | CYPSE [6, 10]: 0.0 | CYPSE [6, 11]: 0.0 | CYPSE [6, 12]: 5.0 | CYPSE [6, 13]: 6.0

Cc1ccsc1C=C(C#N)c1nsc2ccc(-n3c(=O)cc(C(F)(F)F)n(C)c3=O)cc12 [Example 457, 1,2-Benzisothiazole-3-acetonitrile, 5-[3,6-dihydro-3-methyl-2,6-dioxo-4-(trifluoromethyl)-1(2H)-pyrimidinyl]-alpha-(3-methyl-2-thenylidene)-]
CYPIR [1, 10]: 0.0 | CYPIR [1, 11]: 3.0 | CYPIR [1, 12]: 5.0 | CYPIR [1, 13]: 7.0 | ECHORC [2, 10]: 5.0 | ECHORC [2, 11]: 7.0 | ECHORC [2, 12]: 9.0 | ECHORC [2, 13]: 9.0 | ORYSAT ([3]; 0.0320 kg/ha): 0.0 | ORYSAT ([3]; 0.0620 kg/ha): 0.0 | ORYSAT ([3]; 0.1250 kg/ha): 0.0 | ORYSAT ([3]; 0.2500 kg/ha): 3.0 | MOOVA [4, 10]: 2.0 | MOOVA [4, 11]: 4.0 | MOOVA [4, 12]: 7.0 | MOOVA [4, 13]: 7.0 | SAGPY [5, 10]: 0.0 | SAGPY [5, 11]: 0.0 | SAGPY [5, 12]: 3.0 | SAGPY [5, 13]: 3.0 | CYPSE [6, 10]: 0.0 | CYPSE [6, 11]: 0.0 | CYPSE [6, 12]: 0.0 | CYPSE [6, 13]: 0.0

CCCCOCc1nsc2ccc(-n3c(=O)cc(C(F)(F)F)n(C)c3=O)cc12 [Example 204, 3-[3-(Butoxymethyl)-1,2-benzisothiazol-5-yl]-1-methyl-6-(trifluoromethyl)-2,4(1H,3H)-pyrimidinedione]
herbicidal effect rating, CYPIR [1, 14]: 9.0 | herbicidal effect rating, CYPIR [1, 15]: 9.0 | herbicidal effect rating, CYPIR [1, 12]: 9.0 | herbicidal effect rating, CYPIR [1, 13]: 9.0 | herbicidal effect rating, ECHORC [2, 14]: 0.0 | herbicidal effect rating, ECHORC [2, 15]: 2.0 | herbicidal effect rating, ECHORC [2, 12]: 4.0 | herbicidal effect rating, ECHORC [2, 13]: 9.0 | herbicidal effect rating, ORYSAT (rice tolerance) ([3]; 0.0313 kg/ha): 3.0 | herbicidal effect rating, ORYSAT (rice tolerance) ([3]; 0.0625 kg/ha): 4.0 | herbicidal effect rating, ORYSAT (rice tolerance) ([3]; 0.1250 kg/ha): 7.0 | herbicidal effect rating, ORYSAT (rice tolerance) ([3]; 0.2500 kg/ha): 7.0 | herbicidal effect rating, MOOVA [4, 14]: 0.0 | herbicidal effect rating, MOOVA [4, 15]: 2.0 | herbicidal effect rating, MOOVA [4, 12]: 4.0 | herbicidal effect rating, MOOVA [4, 13]: 7.0 | herbicidal effect rating, SAGPY [5, 14]: 0.0 | herbicidal effect rating, SAGPY [5, 15]: 0.0 | herbicidal effect rating, SAGPY [5, 12]: 0.0 | herbicidal effect rating, SAGPY [5, 13]: 0.0 | herbicidal effect rating, CYPSE [6, 14]: 0.0 | herbicidal effect rating, CYPSE [6, 15]: 0.0 | herbicidal effect rating, CYPSE [6, 12]: 2.0 | herbicidal effect rating, CYPSE [6, 13]: 7.0
